Measured values taken from PubChem BioAssay AID248 (DTP/NCI, 2004).
Several values for one entry are separate records, joined by “and”; a condition that tells them apart may be missing. Equal values may be shown once. Toxic doses and inconclusive results are not listed. No stated cut-off is given here; in the data, active means T/C of 150% or more; inactive means T/C below 125%.

System: L1210 leukemia ip in BDF1 mice, survival T/C
Assay: NCI In Vivo Anticancer Drug Screen. Data for tumor model L1210 Leukemia (intraperitoneal) in B6D2F1 (BDF1) mice
Conditions: endpoint: mean survival time, higher = longer survival
In short: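 Transplantable tumor model; survival measured in treated vs vehicle control mice. Value = treated/control.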

[1] = dose: 100.0 mg/kg/injection, schedule: Q01DX001 (ip), vehicle: carboxymethylcellulose (CMC)
[2] = dose: 100.0 mg/kg/injection, schedule: Q01DX009 (ip), vehicle: Klucel (hydroxypropylcellulose) (HPC)
[3] = dose: 200.0 mg/kg/injection, schedule: Q01DX001 (ip), vehicle: carboxymethylcellulose (CMC)
[4] = dose: 200.0 mg/kg/injection, schedule: Q01DX009 (ip), vehicle: Klucel (hydroxypropylcellulose) (HPC)
[5] = dose: 400.0 mg/kg/injection, schedule: Q01DX001 (ip), vehicle: carboxymethylcellulose (CMC)
[6] = dose: 400.0 mg/kg/injection, schedule: Q01DX009 (ip), vehicle: Klucel (hydroxypropylcellulose) (HPC)
[7] = dose: 100.0 mg/kg/injection, schedule: Q04DX003 (ip), vehicle: saline with Tween-80
[8] = dose: 200.0 mg/kg/injection, schedule: Q04DX003 (ip), vehicle: saline with Tween-80
[9] = dose: 400.0 mg/kg/injection, schedule: Q04DX003 (ip), vehicle: saline with Tween-80
[10] = dose: 50.0 mg/kg/injection, schedule: Q01DX009 (ip), vehicle: Klucel (hydroxypropylcellulose) (HPC)
[11] = dose: 100.0 mg/kg/injection, schedule: Q01DX005 (ip), vehicle: saline
[12] = dose: 200.0 mg/kg/injection, schedule: Q01DX005 (ip), vehicle: saline
[13] = dose: 100.0 mg/kg/injection, schedule: Q01DX001 (ip), vehicle: saline
[14] = dose: 200.0 mg/kg/injection, schedule: Q01DX001 (ip), vehicle: saline
[15] = dose: 100.0 mg/kg/injection, schedule: Q04DX003 (ip), vehicle: Klucel (hydroxypropylcellulose) (HPC)
[16] = dose: 200.0 mg/kg/injection, schedule: Q04DX003 (ip), vehicle: Klucel (hydroxypropylcellulose) (HPC)
[17] = dose: 400.0 mg/kg/injection, schedule: Q04DX003 (ip), vehicle: Klucel (hydroxypropylcellulose) (HPC)
[18] = dose: 100.0 mg/kg/injection, schedule: Q01DX009 (ip), vehicle: saline
[19] = dose: 200.0 mg/kg/injection, schedule: Q01DX009 (ip), vehicle: saline
[20] = dose: 400.0 mg/kg/injection, schedule: Q01DX009 (ip), vehicle: saline

Measured: T/C

COc1cc(CC(=O)O)c([N+](=O)[O-])cc1OC
inactive: [1] 97 % of control | [2] 114 % of control | [3] 110 % of control | [4] 103 % of control | [5] 110 % of control | [6] 101 % of control

COCc1c(C)c(C)cc(C)c1C
inactive: [2] 96 % of control | [4] 96 % of control | [6] 91 % of control

CCN(CC)CCn1c2ccccc2c2cc3cnccc3c(C)c21
inactive: dose: 18.75 mg/kg/injection, schedule: Q01DX009 (ip), vehicle: saline 109 % of control | dose: 37.5 mg/kg/injection, schedule: Q01DX009 (ip), vehicle: saline 109 % of control | dose: 37.5 mg/kg/injection, schedule: Q04DX003 (ip), vehicle: Klucel (hydroxypropylcellulose) (HPC) 106 % of control | dose: 75.0 mg/kg/injection, schedule: Q01DX009 (ip), vehicle: saline 114 % of control | dose: 75.0 mg/kg/injection, schedule: Q04DX003 (ip), vehicle: Klucel (hydroxypropylcellulose) (HPC) 105 % of control | dose: 150.0 mg/kg/injection, schedule: Q01DX009 (ip), vehicle: saline 89 % of control | dose: 150.0 mg/kg/injection, schedule: Q04DX003 (ip), vehicle: Klucel (hydroxypropylcellulose) (HPC) 87 % of control

CCOc1ccc(C(C)CC(=O)NN)c(O)c1 (centres undefined)
inactive: dose: 75.0 mg/kg/injection, schedule: Q01DX001 (ip), vehicle: saline with Tween-80 95 % of control | dose: 150.0 mg/kg/injection, schedule: Q01DX001 (ip), vehicle: saline with Tween-80 98 % of control | dose: 300.0 mg/kg/injection, schedule: Q01DX001 (ip), vehicle: saline with Tween-80 101 % of control

CN1C2CCC1C(=O)N(Cc1ccccc1)C2=O
inactive: [7] 102 % of control | [8] 93 % of control | [9] 101 % of control

Cc1ccc(S(=O)(=O)N=P(c2ccccc2)(c2ccccc2)c2ccccc2)cc1
inactive: dose: 50.0 mg/kg/injection, schedule: Q01DX001 (ip), vehicle: carboxymethylcellulose (CMC) 90 % of control | [1] 95 % of control | [7] 86 % of control | [3] 92 % of control | [8] 86 % of control | [5] 86 % of control | [9] 91 % of control

CCc1[nH]c(=O)nc2[nH]c3ccccc3c12
inactive: dose: 100.0 mg/kg/injection, schedule: Q04DX002 (ip), vehicle: Klucel (hydroxypropylcellulose) (HPC) 90 % of control | dose: 200.0 mg/kg/injection, schedule: Q04DX002 (ip), vehicle: Klucel (hydroxypropylcellulose) (HPC) 93 % of control | dose: 400.0 mg/kg/injection, schedule: Q04DX002 (ip), vehicle: Klucel (hydroxypropylcellulose) (HPC) 97 % of control

C=C1C(=O)OC2C1C(OC(=O)/C(=C/C)COC(C)=O)CC1(CO1)C1C(OC(=O)/C(=C/C)CO)C=C(C)C21 (centres undefined)
inactive: [10] 93 % of control | [2] 93 % of control | [4] 86 % of control

COC(=O)c1c(C(=O)N(C)C)n[nH]c1C1OCC2OC(C)(C)OC21 (centres undefined)
inactive: [11] 100 % of control | [12] 100 % of control

O=C(O)C1=CC2CC1C1CC(C(=O)O)CC21 (centres undefined)
inactive: dose: 100.0 mg/kg/injection, schedule: Q01DX001 (ip), vehicle: Klucel (hydroxypropylcellulose) (HPC) 105 % of control | dose: 200.0 mg/kg/injection, schedule: Q01DX001 (ip), vehicle: Klucel (hydroxypropylcellulose) (HPC) 91 % of control | dose: 400.0 mg/kg/injection, schedule: Q01DX001 (ip), vehicle: Klucel (hydroxypropylcellulose) (HPC) 103 % of control

COc1ccc(C(=O)/C=C/c2ccc(C(C)C)cc2)cc1
inactive: dose: 75.0 mg/kg/injection, schedule: Q04DX003 (ip), vehicle: saline 94 % of control | dose: 150.0 mg/kg/injection, schedule: Q04DX003 (ip), vehicle: saline 100 % of control | dose: 300.0 mg/kg/injection, schedule: Q04DX003 (ip), vehicle: saline 89 % of control

O=C(O)CCNC(=O)CNC(=O)OCc1ccccc1
inactive: [2] 98 % of control | [4] 100 % of control | dose: 300.0 mg/kg/injection, schedule: Q01DX009 (ip), vehicle: Klucel (hydroxypropylcellulose) (HPC) 98 % of control

CCSCN1CCN(CSCC)CC1
inactive: [13] 98 % of control | [14] 104 % of control

O=C(C=C(C(F)(F)F)C(F)(F)F)c1ccc(Cl)c([N+](=O)[O-])c1
inactive: dose: 0.5 mg/kg/injection, schedule: Q01DX009 (ip), vehicle: other 98 % of control | dose: 1.0 mg/kg/injection, schedule: Q01DX009 (ip), vehicle: other 95 % of control | dose: 2.5 mg/kg/injection, schedule: Q01DX009 (ip), vehicle: other 101 % of control | dose: 2.5 mg/kg/injection, schedule: Q01DX009 (ip), vehicle: saline with Tween-80 96 % of control | dose: 6.0 mg/kg/injection, schedule: Q01DX001 (ip), vehicle: saline with Tween-80 103 % of control | dose: 12.0 mg/kg/injection, schedule: Q01DX001 (ip), vehicle: saline with Tween-80 98 % of control | dose: 25.0 mg/kg/injection, schedule: Q01DX001 (ip), vehicle: saline with Tween-80 95 % of control and 100 % of control

CN(CCO)C(c1ccccc1)c1ccccc1
inactive: [13] 100 % of control | [14] 94 % of control | dose: 400.0 mg/kg/injection, schedule: Q01DX001 (ip), vehicle: saline 103 % of control

COc1ccc(NC(=O)Nc2cc(Cl)ccc2OC)cc1
inactive: dose: 12.5 mg/kg/injection, schedule: Q01DX009 (ip), vehicle: Klucel (hydroxypropylcellulose) (HPC) 90 % of control | dose: 25.0 mg/kg/injection, schedule: Q01DX009 (ip), vehicle: Klucel (hydroxypropylcellulose) (HPC) 93 % of control | [10] 93 % of control | [15] 99 % of control | [16] 92 % of control | [17] 90 % of control

COc1ccc(C)cc1NC(=O)SCCSC(=O)Nc1cc(C)ccc1OC
inactive: dose: 100.0 mg/kg/injection, schedule: Q01DX009 (ip), vehicle: saline with Tween-80 100 % of control | dose: 200.0 mg/kg/injection, schedule: Q01DX009 (ip), vehicle: saline with Tween-80 87 % of control

Cc1ccc[n+]([O-])c1Cl
inactive: dose: 100.0 mg/kg/injection, schedule: Q04DX003 (ip), vehicle: saline 100 % of control | dose: 200.0 mg/kg/injection, schedule: Q04DX003 (ip), vehicle: saline 87 % of control

CC(=O)Nc1ccc(S(=O)(=O)F)cc1C
inactive: [2] 98 % of control | [4] 95 % of control

CCCCNc1nnnn1CCCC
inactive: dose: 100.0 mg/kg/injection, schedule: Q04DX003 (ip), vehicle: acetone 98 % of control | dose: 200.0 mg/kg/injection, schedule: Q04DX003 (ip), vehicle: acetone 96 % of control

COc1ccc(CC2C(=O)OC(=O)C2Cc2ccc(OC)c(OC)c2)cc1OC (centres undefined)
inactive: [7] 91 % of control | [8] 104 % of control | [9] 94 % of control

c1ccc(CC2(Cc3ccccc3)N=C(c3ccccc3)C(c3ccccc3)=N2)cc1
inactive: [2] 103 % of control | [15] 102 % of control | [4] 97 % of control | [16] 103 % of control | [6] 98 % of control | [17] 97 % of control

CC(=O)c1ccc2c(c1)CCN2
inactive: [2] 91 % of control | [4] 91 % of control

CCCCCCCCNC(=O)C1OC(n2cnc3c(N)ncnc32)C(O)C1O (centres undefined)
inactive: dose: 100.0 mg/kg/injection, schedule: Q01DX005 (ip), vehicle: saline with Tween-80 86 % of control | [18] 104 % of control | dose: 200.0 mg/kg/injection, schedule: Q01DX005 (ip), vehicle: saline with Tween-80 105 % of control | [19] 91 % of control | [20] 110 % of control

NC(CS(=O)c1ccc([N+](=O)[O-])cc1Cl)C(=O)O (centres undefined)
inactive: [7] 103 % of control | [8] 95 % of control | [9] 101 % of control

CC(=O)Oc1ccc(C)cc1
inactive: [10] 94 % of control | [2] 110 % of control | [15] 100 % of control | [4] 107 % of control | [16] 104 % of control

O=c1ccn(C2OC(CF)C(O)C2O)c(=O)[nH]1 (centres undefined)
inactive: [11] 104 % of control | [15] 106 % of control | [12] 104 % of control | [16] 110 % of control | [17] 101 % of control

O=C(O)/C=C\C(=O)Nc1ccccc1NC(=O)/C=C/C(=O)O
inactive: [18] 96 % of control | [19] 94 % of control | [20] 91 % of control
